Assay results taken from patent US20190133964A1, “Polypeptide nano-bubbles and preparation method and application thereof” (NANJING MEDICAL UNIVERSITY, priority 2018, published 2019).

How the values were obtained:
[1] = system: mice fed with high-fat diet; test: Weight of mice fed with high-fat diet during drug administration; format: in vivo; settings: tail vein injection daily, 12 weeks after drug administration onward, FIG. 5
Source text: Experimental animals: male mice at the age of 6 weeks and feed were provided by the Experimental Animal Center of Nanjing Medical University, license number: SCXK (Su) 2011-0003. The animals are fed in different cages randomly, and drink water freely.
Experimental drugs: normal diet control group (blank control group); and high-fat diet groups are divided into a normal saline group (model control group), a nano-bubble group, a nano-bubble-curcumin group, a polypeptide nano-bubble group (prepared by step 3) in embodiment 1), a curcumin group and a polypeptide nano-bubble-curcumin group (prepared by step 4) in embodiment 1). […]

[2] = system: mice fed with high fat; test: Storage of visceral and subcutaneous adipose of mice fed with high fat; format: in vivo; settings: for Weight: body weight after 20 weeks
Protocol: • 1) The obese mice fed with high fat are subjected to drug administration by intravenous injection for 20 weeks according to experimental steps in embodiment 2; • 2) the mice in the various groups are not fed with food for 12 hours, and are weighed accurately after being anaesthetized with 3% pentobarbital sodium at 45 mg/kg by intraperitoneal injection; • 3) the mice are conventionally sterilized and subjected to laparotomy, kidney surrounding adipose tissues, mesenterium surrounding adipose tissues, epididymis surrounding adipose tissues and abdominal subcutaneous adipose tissues are rapidly picked to weigh wet weight (wherein the range of the abdominal subcutaneous adipose tissues is as follows: the abdomen below an costal arch and above a groin, and a midaxillary line is taken as a boundary for two sides); • 4) the weight is calculated according to the following formula: wet weight of abdominal adipose; adipose pad total weight (g)=the kidney surrounding adipose tissues+the epididymis surrounding adipose tissues; and body adipose content=the adipose pad total weight (g)/body weight (g). • 5) The obtained data is subjected to statistical treatment.

[3] = high-fat diet mice, 20 weeks, n = 10
[4] = high-fat diet mice, tail vein injection 20 weeks, curcumin 75 mg/kg or nano-bubbles 40 μg/mice/time, n = 10, wet weight

## COc1cc(/C=C/C(=O)CC(=O)/C=C/c2ccc(O)c(OC)c2)ccc1O [Curcumin, curcumin]
[1]
  Increasing of the weight of the mice compared with the model control group: obviously inhibited
[2]; Table 6
  Wet weight of the visceral adipose tissues compared with the model control group: reduced obviously
[2]; Table 6, high-fat diet mice, tail vein injection 20 weeks, n = 10
  Total weight of visceral adipose tissues: 8.03 ± 0.02 g
[2]; Table 7
  Body fat mass index compared with the model control group: obviously reduced
[2]; Table 7, high-fat diet mice, n = 10
  Weight: 34.92 ± 0.96 g
[2]; Table 8, high-fat diet mice, n = 10
  Weight: 35.72 ± 0.75 g
[2]; Table 8, high-fat diet mice, 20 weeks, n = 10
  VAT (total weight of visceral adipose tissues): 7.24 ± 0.02 g
[2]; fat pad total weight (g)/weight (g), high-fat diet mice, 20 weeks, n = 10
  Body fat mass index: 6.38 ± 0.21 %
[2]; [3]
  SCAT (subcutaneous adipose tissue total weight): 3.01 ± 0.05 g
  SCAT/weight: 7.02 ± 0.38
  VAT/SCAT: 1.78 ± 0.09
[2]; [4]
  Amount of visceral adipose tissues: Epididymis surrounding: 1.21 ± 0.18 g
  Amount of visceral adipose tissues: Kidney surrounding: 0.72 ± 0.05 g
  Amount of visceral adipose tissues: Omentum and mesenterium surrounding: 0.59 ± 0.02 g
[2]; kidney surrounding + epididymis surrounding adipose tissues, high-fat diet mice, 20 weeks, n = 10
  Fat pad total weight: 2.34 ± 0.10 g
[2]; text on Table 8
  Weight of the subcutaneous adipose compared with the model group: remarkably reduced
